Laboratory results taken from PubChem BioAssay AID2060501 (Molecular Pharmacology Branch, DTP, NCI, 2025).

System: 282377-053-R-J1-PDC complex spheroids, viability
Assay: Anticancer human tumor 282377-053-R-J1-PDC patient-derived colon adenocarcinoma cell line growth inhibition [GQUAD]
Conditions: for IC50: curve of first compound; for viability, T/C: stronger effect = lower value
How it was run: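 Tumor cells were grown as complex spheroids with HUVEC endothelial cells and mesenchymal stem cells as stroma. G-quadruplex stabilizers were combined with targeted agents over half-log dilutions from near the clinical Cmax, or from 10 microM.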

[1] = second compound 0.0316 µM, first compound 0.0316 µM
[2] = second compound 0.0316 µM, first compound 0.1 µM
[3] = second compound 0.0316 µM, first compound 0.316 µM
[4] = second compound 0.0316 µM, first compound 1 µM
[5] = second compound 0.0316 µM, first compound 3.16 µM
[6] = second compound 0.0316 µM, first compound 10 µM
[7] = second compound 0.1 µM, first compound 0.0316 µM
[8] = second compound 0.1 µM, first compound 0.1 µM
[9] = second compound 0.1 µM, first compound 0.316 µM
[10] = second compound 0.1 µM, first compound 1 µM
[11] = second compound 0.1 µM, first compound 3.16 µM
[12] = second compound 0.1 µM, first compound 10 µM
[13] = second compound 0.316 µM, first compound 0.0316 µM
[14] = second compound 0.316 µM, first compound 0.1 µM
[15] = second compound 0.316 µM, first compound 0.316 µM
[16] = second compound 0.316 µM, first compound 1 µM
[17] = second compound 0.316 µM, first compound 3.16 µM
[18] = second compound 0.316 µM, first compound 10 µM
[19] = second compound 1 µM, first compound 0.0316 µM
[20] = second compound 1 µM, first compound 0.1 µM
[21] = second compound 1 µM, first compound 0.316 µM
[22] = second compound 1 µM, first compound 1 µM
[23] = second compound 1 µM, first compound 3.16 µM
[24] = second compound 1 µM, first compound 10 µM
[25] = second compound 3.16 µM, first compound 0.0316 µM
[26] = second compound 3.16 µM, first compound 0.1 µM
[27] = second compound 3.16 µM, first compound 0.316 µM
[28] = second compound 3.16 µM, first compound 1 µM
[29] = second compound 3.16 µM, first compound 3.16 µM
[30] = second compound 3.16 µM, first compound 10 µM
[31] = second compound 10 µM, first compound 0.0316 µM
[32] = second compound 10 µM, first compound 0.1 µM
[33] = second compound 10 µM, first compound 0.316 µM
[34] = second compound 10 µM, first compound 1 µM
[35] = second compound 10 µM, first compound 3.16 µM
[36] = second compound 10 µM, first compound 10 µM
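Also: spheroids exposed to compounds for 7 days before readout.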
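For viability, T/C in this document: percent of vehicle DMSO control viability with 100% = untreated-like growth.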

With `CC1COCCN1c1cc(-c2ccnn2C)c2ccnc(-c3ccn[nH]3)c2n1` (centres undefined) + Cc1cnc(CNC(=O)c2c(=O)c3ccc(N4CCCN(C)CC4)nc3n3c2sc2ccccc23)cn1 the IC50 (second compound 0.0316 µM) was 0.0974 µM, the IC50 (second compound 0.1 µM) was 0.0769 µM and the IC50 (second compound 0.316 µM) was < 0.0316 µM. For the same compound, the IC50 (second compound 1 µM) was < 0.0316 µM, the IC50 (second compound 3.16 µM) was < 0.0316 µM and the IC50 (second compound 10 µM) was < 0.0316 µM. The viability, T/C [1] was 97%, the viability, T/C [2] was 46.1% and the viability, T/C [3] was 36%. It also gave a viability, T/C [4] of 27.8%, a viability, T/C [5] of 24.1% and a viability, T/C [6] of 21.2%. It also gave a viability, T/C [7] of 65.8%, a viability, T/C [8] of 43.5% and a viability, T/C [9] of 34.4%. It also gave a viability, T/C [10] of 25.5%, a viability, T/C [11] of 23.7% and a viability, T/C [12] of 16.2%. It also gave a viability, T/C [13] of 41.9%, a viability, T/C [14] of 40.9% and a viability, T/C [15] of 36.1%. For the same compound, the viability, T/C [16] was 26.2%, the viability, T/C [17] was 21.5% and the viability, T/C [18] was 18.4%. For the same compound, the viability, T/C [19] was 40.4%, the viability, T/C [20] was 32% and the viability, T/C [21] was 26.8%. It also gave a viability, T/C [22] of 26.2%, a viability, T/C [23] of 23.5% and a viability, T/C [24] of 16.3%. The viability, T/C [25] was 35.4%, the viability, T/C [26] was 32.8% and the viability, T/C [27] was 25.4%. For the same compound, the viability, T/C [28] was 22.8%, the viability, T/C [29] was 21.1% and the viability, T/C [30] was 15.8%. For the same compound, the viability, T/C [31] was 26.9%, the viability, T/C [32] was 22.5% and the viability, T/C [33] was 27.1%. The viability, T/C [34] was 23%, the viability, T/C [35] was 21.5% and the viability, T/C [36] was 15.6%.

For `CCCS(=O)(=O)Nc1ccc(F)c(C(=O)c2c[nH]c3ncc(-c4ccc(Cl)cc4)cc23)c1F` + CN(C)c1ccc(Nc2c3ccc(NC(=O)CCN4CCCC4)cc3nc3cc(NC(=O)CCN4CCCC4)ccc23)cc1, the IC50 (second compound 0.0316 µM) was 4.49 µM, the IC50 (second compound 0.1 µM) was 3.49 µM and the IC50 (second compound 0.316 µM) was 2.96 µM. It also gave an IC50 (second compound 1 µM) of 3.87 µM, an IC50 (second compound 3.16 µM) of 3.32 µM and an IC50 (second compound 10 µM) of 3.74 µM. For the same compound, the viability, T/C [1] was 81%, the viability, T/C [2] was 66% and the viability, T/C [3] was 58%. The viability, T/C [4] was 69.9%, the viability, T/C [5] was 64.5% and the viability, T/C [6] was 16.9%. The viability, T/C [7] was 68.1%, the viability, T/C [8] was 56% and the viability, T/C [9] was 59.3%. It also gave a viability, T/C [10] of 61.4%, a viability, T/C [11] of 52.8% and a viability, T/C [12] of 19.4%. It also gave a viability, T/C [13] of 74.8%, a viability, T/C [14] of 65.7% and a viability, T/C [15] of 74.7%. It also gave a viability, T/C [16] of 49.3%, a viability, T/C [17] of 57.2% and a viability, T/C [18] of 15.6%. It also gave a viability, T/C [19] of 79.8%, a viability, T/C [20] of 60.9% and a viability, T/C [21] of 89.3%. For the same compound, the viability, T/C [22] was 57.6%, the viability, T/C [23] was 59.2% and the viability, T/C [24] was 23.6%. It also gave a viability, T/C [25] of 73.3%, a viability, T/C [26] of 72.5% and a viability, T/C [27] of 68.7%. The viability, T/C [28] was 67.1%, the viability, T/C [29] was 50.6% and the viability, T/C [30] was 21.6%. The viability, T/C [31] was 82.1%, the viability, T/C [32] was 70.6% and the viability, T/C [33] was 75.6%. For the same compound, the viability, T/C [34] was 52.3%, the viability, T/C [35] was 65% and the viability, T/C [36] was 14.2%.
